Test system: DSS-induced colitis model
Experiment: Efficacy in model of dextran sulfate sodium-induced colitis
Format: in vivo, C57BL/6J mice
Experimental: A colitis model was prepared by allowing 7-week-old male C57BL/6J mice to freely drink a 1.5% aqueous solution of dextran sulfate sodium (hereinafter, DSS) dissolved in pure water purified through a Milli-Q (registered trademark, Merck Millipore) filter (hereinafter, referred to as Milli-Q water). For the control group, only Milli-Q water was administered. Simultaneously with the start of administration of DSS in drinking water, feed prepared by mixing Compound A (0.01%, 0.03%) with powdered FR-2 was administered to the feed administered group. For the vehicle group with feeding, and the control group, to which no DSS was administered, only powdered FR-2 was administered. The day on which the administration of DSS in drinking water and the administration of the compound were started was designated as Day 1, and the administration was continued until Day 8.
Control group: Milli-Q water, FR-2 (N=10) Vehicle group: 1.5% DSS solution, FR-2 (N=10) Compound A 0.01% group: 1.5% DSS solution, FR-2 mixed with 0.01% Compound A (N=10) Compound A 0.03% group: 1.5% DSS solution, FR-2 mixed with 0.03% Compound A (N=10)
All animals were weighed in the morning from Day 1 to Day 8. On Day 8, the abdomen was opened under isoflurane anesthesia, blood was collected from the abdominal vein by an untreated syringe, the duodenum, large intestine, rectum, and anus were removed, and the length of the removed large intestine was measured with an electric caliper. The large intestine was cut open to observe the stool properties and score the degree of diarrhea.

[1] = 0.03% Compound A in feed, Day 1 to Day 8, 1.5% DSS in drinking water, compared with negative control

Cc1nc(CC2CCN(c3ccc(-c4ccc(C[C@H](C)O)cc4)cc3)CC2)nc(C(=O)NCC(=O)O)c1O [Compound A, [({5-hydroxy-2-[(1-{4′-[(2S)-2-hydroxypropyl]biphenyl-4-yl}piperidin-4-yl)methyl]-6-methylpyrimidin-4-yl}carbonyl)amino]acetic acid]
Inhibitory effect on intestinal length shortening (intestinal tract length on Day 8) [1]: significant inhibitory effect on intestinal length shortening
Inhibitory effect on weight loss (amount of change in body weight on Day 8) [1]: significant inhibitory effect on weight loss
Diarrhea score on Day 8 (stool properties) (compound-administered group (0.01%, 0.03% in feed), 1.5% DSS, score 0-3 per Table 1, compared with negative control): tended to have improved stool properties
Effect on the clinical condition in DSS-induced colitis model (overall conclusion, mice, administration in feed Day 1 to Day 8): improving effect on the clinical condition

Reference: patent US20210008069A1, “THERAPEUTIC AGENT FOR INFLAMMATORY BOWEL DISEASE” (DAIICHI SANKYO COMPANY, LIMITED, priority 2018, published 2021)
